Measured values taken from article PMC5882164, “A novel calcimimetic agent, evocalcet (MT-4580/KHK7580), suppresses the parathyroid cell function with little effect on the gastrointestinal tract or CYP isozymes in vivo and in vitro” (PLoS ONE, 2018).

Legend:
human CaR = target: T1, human CaR (Homo sapiens, UniProt P41180); assay: Agonistic activity studies with HEK293 cells stably expressing human CaR (cytoplasmic Ca2+ concentration); format: cell-based; conditions: hCaR-HEK293 cells
T1 construct: expressed in transfected cells
T1 sequence (P41180 20-1078): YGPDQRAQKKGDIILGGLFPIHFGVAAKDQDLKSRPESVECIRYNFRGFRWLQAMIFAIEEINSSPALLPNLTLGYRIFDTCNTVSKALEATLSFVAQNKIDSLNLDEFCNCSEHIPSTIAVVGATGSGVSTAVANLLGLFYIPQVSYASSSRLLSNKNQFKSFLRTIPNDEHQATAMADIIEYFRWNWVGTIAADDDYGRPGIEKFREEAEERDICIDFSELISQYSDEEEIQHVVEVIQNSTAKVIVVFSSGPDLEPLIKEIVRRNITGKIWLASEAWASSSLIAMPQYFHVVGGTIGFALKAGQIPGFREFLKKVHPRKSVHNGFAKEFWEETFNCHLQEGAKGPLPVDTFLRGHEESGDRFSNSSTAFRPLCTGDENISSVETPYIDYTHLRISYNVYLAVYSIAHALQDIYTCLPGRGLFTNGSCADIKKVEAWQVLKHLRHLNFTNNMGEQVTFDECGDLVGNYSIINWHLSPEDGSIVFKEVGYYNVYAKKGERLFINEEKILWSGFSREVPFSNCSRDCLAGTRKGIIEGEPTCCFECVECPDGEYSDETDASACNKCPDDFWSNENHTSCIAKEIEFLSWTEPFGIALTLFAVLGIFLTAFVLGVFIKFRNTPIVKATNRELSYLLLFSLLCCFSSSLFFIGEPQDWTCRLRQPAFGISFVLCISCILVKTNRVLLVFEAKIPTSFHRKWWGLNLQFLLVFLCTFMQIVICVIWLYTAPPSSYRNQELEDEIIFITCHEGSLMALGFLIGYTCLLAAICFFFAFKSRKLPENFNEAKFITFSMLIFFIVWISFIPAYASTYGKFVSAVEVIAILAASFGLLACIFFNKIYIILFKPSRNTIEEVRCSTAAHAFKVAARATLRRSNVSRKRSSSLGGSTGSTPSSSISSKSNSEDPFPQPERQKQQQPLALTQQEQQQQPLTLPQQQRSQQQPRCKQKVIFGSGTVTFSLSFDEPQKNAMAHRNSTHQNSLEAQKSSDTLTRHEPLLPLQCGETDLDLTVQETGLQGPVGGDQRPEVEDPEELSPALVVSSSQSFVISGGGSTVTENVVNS
Description: HEK 293 cell is obtained from Summit Pharmaceuticals International Corporation (ATCC® Number: CRL-1573^TM). The HindIII-XhoI fragment of the human CaR cDNA was subcloned into the mammalian expression vector pcDNA3.1/Hygro (+) (Invitrogen) containing the hygromycin resistance gene as a selectable marker. This plasmid was transfected into HEK 293 cells by lipofection. The transfected cells were grown in DMEM containing 10% fetal bovine serum and hygromycin B ([…]) in 96 well plate. Hygromycin-resistant colonies were subcloned and assayed for hCaR mRNA by quantitative RT-PCR. The stably transfected cell line was then selected and used for agonistic activity studies.
Evocalcet was dissolved in dimethyl sulfoxide (DMSO) and diluted with HEPES buffer for the preparation of cells. Evocalcet solutions (3~30000 nM, 9-point concentrations) were added to a 96-well plate, and a suspension of HEK293 cells stably transfected with the human CaR was then seeded onto the plate. The ratio with the fluorescence intensity was determined continuously with a multi-label plate reader. To evaluate the agonistic activity pattern of evocalcet, calcium solutions in each concentration were added after the addition of evocalcet solutions to the plate.
The transient changes in the cytoplasmic calcium concentration (Δ[Ca^2+]i) induced by receptor activation were measured. (A) The effect of evocalcet on the Δ[Ca^2+]i value in hCaR-HEK293 cells. (B) The effect of evocalcet on the response rates elicited by increasing the extracellular calcium level in hCaR-HEK293 cells. The response rate was calculated using the following formula: Responserate(%)=Δ[Ca^2+]i/MaxΔ[Ca^2+]i×100 Δ[Ca^2+]i: Subtraction of basal [Ca^2+]i from maximum [Ca^2+]i observed after addition of evocalcet; Max Δ[Ca^2+]i: Δ[Ca^2+]i at the maximum Ca concentration (3 mmol/L).

CYP2D6 = CYP2D6 (Homo sapiens, UniProt P10635); assay: CYP inhibition assay in human liver microsomes; format: in vitro ADME; conditions: no pre-incubation
Chain of CYP2D6 (P10635 whole entry): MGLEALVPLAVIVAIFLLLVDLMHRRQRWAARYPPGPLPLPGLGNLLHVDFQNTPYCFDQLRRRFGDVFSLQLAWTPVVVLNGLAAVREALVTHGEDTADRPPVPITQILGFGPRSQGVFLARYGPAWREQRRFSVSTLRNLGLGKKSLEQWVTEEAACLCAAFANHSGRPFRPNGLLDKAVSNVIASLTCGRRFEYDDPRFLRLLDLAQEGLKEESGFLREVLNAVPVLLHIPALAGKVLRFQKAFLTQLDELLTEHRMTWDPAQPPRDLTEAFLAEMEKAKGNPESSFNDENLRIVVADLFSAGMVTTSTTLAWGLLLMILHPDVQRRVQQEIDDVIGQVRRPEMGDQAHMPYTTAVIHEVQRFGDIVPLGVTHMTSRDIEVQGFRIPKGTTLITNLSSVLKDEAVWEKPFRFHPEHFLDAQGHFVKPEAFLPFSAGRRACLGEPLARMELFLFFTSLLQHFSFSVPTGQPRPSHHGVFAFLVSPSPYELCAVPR
Description: (§1) The direct inhibition of evocalcet (0.15~50 μM, 6-point concentrations) against the specific activities of 9 CYP isozymes (CYP1A2, CYP2A6, CYP2B6, CYP2C8, CYP2C9, CYP2C19, CYP2D6, CYP2E1, and CYP3A4/5) was examined in human liver microsomes without the pre-incubation of evocalcet, in the presence of the NADPH-generating system. Each CYP substrate was incubated with human liver microsomes in the absence or presence of evocalcet, and the inhibition of evocalcet for each CYP isozyme was measured.

CYP2E1 = target: T2, CYP2E1 (Homo sapiens, UniProt P05181); assay: CYP inhibition assay in human liver microsomes; format: in vitro ADME; conditions: no pre-incubation, read-out: IC50 direct inhibition of CYP2E1
T2 construct: from tissue; host or cells: human liver microsomes
T2 sequence (P05181 whole entry): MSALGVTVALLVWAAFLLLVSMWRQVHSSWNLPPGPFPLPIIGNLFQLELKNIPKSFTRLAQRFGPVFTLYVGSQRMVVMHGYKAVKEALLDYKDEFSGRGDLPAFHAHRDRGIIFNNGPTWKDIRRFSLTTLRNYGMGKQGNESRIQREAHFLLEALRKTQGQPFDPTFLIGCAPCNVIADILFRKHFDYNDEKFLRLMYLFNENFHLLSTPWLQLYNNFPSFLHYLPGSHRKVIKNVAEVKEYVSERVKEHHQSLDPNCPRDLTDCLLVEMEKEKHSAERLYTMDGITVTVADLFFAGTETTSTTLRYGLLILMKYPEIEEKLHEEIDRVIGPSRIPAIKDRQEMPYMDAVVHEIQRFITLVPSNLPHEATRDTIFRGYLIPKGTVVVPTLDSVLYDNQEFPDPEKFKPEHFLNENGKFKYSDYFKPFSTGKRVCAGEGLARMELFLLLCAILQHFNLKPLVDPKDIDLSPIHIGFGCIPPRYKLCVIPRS
Description: as §1

CYP3A4/5 = assay: CYP inhibition assay in human liver microsomes; format: in vitro ADME; conditions: no pre-incubation, read-out: IC50 direct inhibition of CYP3A4/5
Description: as §1

## C[C@@H](N[C@H]1CCN(c2ccc(CC(=O)O)cc2)C1)c1cccc2ccccc12 [evocalcet]
Human CaR; evocalcet 3 nmol/L
  Δ[Ca^2+]i: 1.94 nmol/L
Human CaR; evocalcet 10 nmol/L
  Δ[Ca^2+]i: 6.18 nmol/L
Human CaR; evocalcet 20 nmol/L, Ca concentration 0.25 mmol/L
  Response rate: 0%
Human CaR; evocalcet 20 nmol/L, Ca concentration 0.3 mmol/L
  Response rate: 0%
Human CaR; evocalcet 20 nmol/L, Ca concentration 0.6 mmol/L
  Response rate: 0.26%
Human CaR; evocalcet 20 nmol/L, Ca concentration 0.9 mmol/L
  Response rate: 4.69%
Human CaR; evocalcet 20 nmol/L, Ca concentration 1.2 mmol/L
  Response rate: 16.07%
Human CaR; evocalcet 20 nmol/L, Ca concentration 1.5 mmol/L
  Response rate: 33.31%
Human CaR; evocalcet 20 nmol/L, Ca concentration 1.8 mmol/L
  Response rate: 52.75%
Human CaR; evocalcet 20 nmol/L, Ca concentration 2.1 mmol/L
  Response rate: 70.47%
Human CaR; evocalcet 20 nmol/L, Ca concentration 2.4 mmol/L
  Response rate: 84.37%
Human CaR; evocalcet 20 nmol/L, Ca concentration 2.7 mmol/L
  Response rate: 94.54%
Human CaR; evocalcet 20 nmol/L, Ca concentration 3.0 mmol/L (maximum, reference)
  Response rate: 100%
Human CaR; evocalcet 30 nmol/L
  Δ[Ca^2+]i: 17.71 nmol/L
Human CaR; evocalcet 60 nmol/L, Ca concentration 0.25 mmol/L
  Response rate: 0%
Human CaR; evocalcet 60 nmol/L, Ca concentration 0.3 mmol/L
  Response rate: 0%
Human CaR; evocalcet 60 nmol/L, Ca concentration 0.6 mmol/L
  Response rate: 3.76%
Human CaR; evocalcet 60 nmol/L, Ca concentration 0.9 mmol/L
  Response rate: 16.86%
Human CaR; evocalcet 60 nmol/L, Ca concentration 1.2 mmol/L
  Response rate: 33.15%
Human CaR; evocalcet 60 nmol/L, Ca concentration 1.5 mmol/L
  Response rate: 53.86%
Human CaR; evocalcet 60 nmol/L, Ca concentration 1.8 mmol/L
  Response rate: 70.14%
Human CaR; evocalcet 60 nmol/L, Ca concentration 2.1 mmol/L
  Response rate: 81.77%
Human CaR; evocalcet 60 nmol/L, Ca concentration 2.4 mmol/L
  Response rate: 88.98%
Human CaR; evocalcet 60 nmol/L, Ca concentration 2.7 mmol/L
  Response rate: 92.99%
Human CaR; evocalcet 60 nmol/L, Ca concentration 3.0 mmol/L (maximum, reference)
  Response rate: 100%
Human CaR; evocalcet 100 nmol/L
  Δ[Ca^2+]i: 50.62 nmol/L
Human CaR; evocalcet 300 nmol/L
  Δ[Ca^2+]i: 71.35 nmol/L
Human CaR; evocalcet 1000 nmol/L
  Δ[Ca^2+]i: 70.70 nmol/L
Human CaR; evocalcet 3000 nmol/L
  Δ[Ca^2+]i: 75.59 nmol/L
Human CaR; evocalcet 10000 nmol/L
  Δ[Ca^2+]i: 78.61 nmol/L
Human CaR; evocalcet 30000 nmol/L
  Δ[Ca^2+]i: 77.66 nmol/L
Human CaR; read-out: EC50 for [Ca^2+]i
  EC50: 0.0927 µM
CYP2D6; 50 μM evocalcet, direct inhibition
  CYP2D6 activity in the presence of evocalcet: 50.7%
CYP2D6; read-out: IC50 direct inhibition of CYP2D6
  IC50: > 50 µM
CYP2E1
  IC50: > 50 µM
CYP3A4/5
  IC50: > 50 µM
